Results on two molecules are retold here after US20050289668A1, “Plants with increased levels of one or more amino acids” (priority 2003, published 2005).

In assay [1] the target is Arabidopsis threonine deaminase, wild type. The settings on record: wild type Arabidopsis TD, comparison data, cited from earlier work.
Assay [2] deals with T1, E. coli threonine deaminase (ilvA) variant L447F (ilvA219), SEQ ID NO: 3 (Escherichia coli, UniProt P04968, A120R/A140R/G195C/G334V/L447F/V121L).
T1 construct: made in house; host or cells: E. coli (crude extract)
T1 sequence (P04968 1-514 A120R/V121L/A140R/G195C/G334V/L447F): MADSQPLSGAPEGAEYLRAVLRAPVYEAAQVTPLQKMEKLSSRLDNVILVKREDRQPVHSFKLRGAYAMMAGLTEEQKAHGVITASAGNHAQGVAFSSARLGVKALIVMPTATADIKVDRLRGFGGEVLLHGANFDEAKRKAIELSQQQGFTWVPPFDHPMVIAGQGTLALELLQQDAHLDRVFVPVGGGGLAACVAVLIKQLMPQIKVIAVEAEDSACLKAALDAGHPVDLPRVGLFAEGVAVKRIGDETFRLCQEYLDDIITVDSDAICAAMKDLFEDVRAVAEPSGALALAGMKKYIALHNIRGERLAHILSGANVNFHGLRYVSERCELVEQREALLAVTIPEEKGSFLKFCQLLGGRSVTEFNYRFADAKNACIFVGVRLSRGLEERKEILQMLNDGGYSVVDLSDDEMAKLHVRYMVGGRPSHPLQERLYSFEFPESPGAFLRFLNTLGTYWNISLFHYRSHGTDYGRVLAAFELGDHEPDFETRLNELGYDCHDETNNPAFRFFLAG
Nature of the assay: Threonine deaminase steady state kinetics, L447F (ilvA219). The format is biochemical.

Assay [3] deals with T2, E. coli threonine deaminase (ilvA) variant L481Y, SEQ ID NO: 5 (Escherichia coli, UniProt P04968, A120R/A140R/G195C/G334V/L481Y/V121L).
T2 construct: made in house; host or cells: E. coli (pSE380, crude extract)
T2 sequence (P04968 1-514 A120R/V121L/A140R/G195C/G334V/L481Y): T1 sequence (P04968 1-514 A120R/V121L/A140R/G195C/G334V/L447F) with F447L, L481Y
Nature of the assay: Threonine deaminase steady state kinetics, L481Y. It is filed as biochemical. The method, then:
(§1) Before conducting further transformation experiments using the isolated ilvA alleles in transgenic plants, each allele was over-expressed in E. coli to determine its kinetic parameters. Kinetics data on threonine deaminases containing various mutations, and a comparison to data available for threonine deaminases from Arabidopsis, are provided in Table 4. The E. coli ilvA481 variants were subcloned into pSE380 (Invitrogen, Carlsbad, Calif.) and expression was induced with 0.2 mM IPTG at 37° C. for 3 hours. Expression of the E. coli alleles was high and fairly consistent as visualized by SDS-PAGE.
The effects of amino acid substitutions at Leu481 in ilvA were assessed by steady state kinetic analysis in the presence and absence of L-isoleucine. Threonine deaminase polypeptides for use in in vitro kinetics studies were extracted from E. coli cells in assay buffer containing 50 mM potassium phosphate (pH7.5), 1 mM dithiothreitol (DTT), and 0.5 mM ethylenediamine-tetraacetate. A continuous assay method was employed to monitor the formation of α-ketobutyrate directly at 230 nm (ε230 (pH7.5)=540 M^−1cm^−1 whereas threonine absorption was negligible (˜1%)). The assay was initiated by adding 20 μl of crude extract diluted 1:20 v/v to the assay vessel containing L-threonine (between 2.5 mM and 50 mM) in a final volume of 1 mL. For L-isoleucine inhibition, L-isoleucine was added between 0 mM and 20 mM. The kinetic parameters were determined by fitting the data points to the equations using GraFit 4.0 software (Erithacus Software, Surrey, UK). For comparison, the kcat values of L481 alleles were normalized to the kcat value for the wild type IlvA enzyme. Enzymes represented in FIG. 7 are: wild type E. coli threonine deaminase (circles), L481Y TD enzyme (diamonds), L481F TD enzyme (triangles), and the L481T TD enzyme (squares). Table 4 also summarizes the kinetic parameters of the variant threonine deaminase enzymes produced by the various E. coli ilvA alleles.

In assay [4] the target is T3, E. coli threonine deaminase (ilvA) variant L481T, SEQ ID NO: 8 (Escherichia coli, UniProt P04968, A120R/A140R/G195C/G334V/L481T/V121L).
T3 construct: made in house; host or cells: E. coli (pSE380, crude extract)
Kind of assay: Threonine deaminase steady state kinetics, L481T. The format is biochemical. The procedure:
as §1
The effects of amino acid substitutions at Leu481 in ilvA were assessed by steady state kinetic analysis in the presence and absence of L-isoleucine. Threonine deaminase polypeptides for use in in vitro kinetics studies were extracted from E. coli cells in assay buffer containing 50 mM potassium phosphate (pH7.5), 1 mM dithiothreitol (DTT), and 0.5 mM ethylenediamine-tetraacetate. A continuous assay method was employed to monitor the formation of α-ketobutyrate directly at 230 nm (ε230 (pH7.5)=540 M^−1cm^−1 whereas threonine absorption was negligible (˜1%)). […] The kinetic parameters were determined by fitting the data points to the equations using GraFit 4.0 software (Erithacus Software, Surrey, UK). […]

Residue numbers refer to the chain shown, from its start. Where only a bound is given, the exact number is not on record here.

T3 sequence (P04968 whole entry A120R/V121L/A140R/G195C/G334V/L481T): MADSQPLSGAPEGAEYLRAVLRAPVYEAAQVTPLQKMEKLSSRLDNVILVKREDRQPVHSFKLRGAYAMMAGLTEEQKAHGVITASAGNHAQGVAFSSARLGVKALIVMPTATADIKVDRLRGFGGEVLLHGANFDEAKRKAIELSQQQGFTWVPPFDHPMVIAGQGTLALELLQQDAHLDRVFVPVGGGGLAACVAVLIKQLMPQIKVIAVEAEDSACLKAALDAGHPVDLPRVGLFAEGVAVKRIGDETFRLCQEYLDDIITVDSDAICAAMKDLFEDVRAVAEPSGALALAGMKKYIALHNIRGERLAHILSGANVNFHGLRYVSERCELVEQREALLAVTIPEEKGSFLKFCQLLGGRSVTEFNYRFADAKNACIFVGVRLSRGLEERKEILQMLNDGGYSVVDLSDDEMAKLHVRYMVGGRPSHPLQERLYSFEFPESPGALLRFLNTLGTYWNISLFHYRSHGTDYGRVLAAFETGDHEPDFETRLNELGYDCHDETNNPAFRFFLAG

For orientation: IC50 means the midpoint of a concentration-inhibition curve. Regarding `CC[C@H](C)[C@H](N)C(=O)O` [L-isoleucine], the IC50 in assay [1] was 10 µM; in assay [2], greater than 20000 µM; in assay [3], 1600 µM; in assay [4], 449 µM.
As a reminder, the Km is the substrate concentration at which the rate is half of its maximum. In the case of `C[C@@H](O)[C@H](N)C(=O)O` [L-threonine], the Michaelis-Menten constant (Km) in assay [1] (read-out: Km^Thr) was 2800 µM; in assay [2] (read-out: Km^Thr, L447F, pMON25859, pH 7.5, L-threonine 2.5-50 mM), 1700 µM; in assay [3] (read-out: Km^Thr, L481Y, pMON25868, pH 7.5, L-threonine 2.5-50 mM), 2000 µM; in assay [4] (read-out: Km^Thr, L481T, pMON25866, pH 7.5, L-threonine 2.5-50 mM), 3400 µM. The “Hill coefficient (n), substrate binding” value in assay [2] (L447F, pMON25859, negative cooperativity) was determined as 0.5; in assay [3] (L481Y, pMON25868, degree of cooperativity), 1.1.
